Results published in ChEMBL document CHEMBL1201862, “PubChem BioAssay data set” (2004).
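Five compound concentrations were applied to cells in 96-well plates for 48 hours; endpoints were derived by simple linear interpolation of the resulting dose-response curve. GI50 is the concentration that inhibits growth by half.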 Active and inactive are the calls of the source. Rule as the data show it: active = GI50 up to about 1.1 µM and inactive = higher.

What was measured:
Test in all cases: inhibition of tumour cell growth, NCI panel, 48 h
[1] = system: U-251
[2] = system: OVCAR-4
[3] = system: BT-549
[4] = system: NCI-H522
[5] = system: A498
[6] = system: Malme-3M
[7] = system: ACHN
[8] = system: HOP-92
[9] = system: CAKI-1
[10] = system: SK-MEL-28
[11] = system: OVCAR-8
[12] = system: SNB-75
[13] = system: HT-29
[14] = system: SF-539
[15] = system: NCI-H226
[16] = system: SK-MEL-5
[17] = system: SK-OV-3
[18] = system: OVCAR-3

Measured: GI50

C[C@H](CCC(=O)O)[C@H]1CC[C@H]2[C@@H]3[C@H](O)C[C@@H]4C[C@H](O)CC[C@]4(C)[C@H]3CC[C@]12C [CHENODIOL]
inactive: [1] 37.6 µM | [2] 51.9 µM | [3] 36.3 µM | [4] 25.5 µM | [5] 69.5 µM | [6] 32.2 µM | [7] 46.8 µM | [8] 30.3 µM | [9] 37.2 µM | [10] 42.6 µM | [11] 12.1 µM | [12] 19.6 µM | [13] 24.3 µM | [14] 24.7 µM | [15] 22.2 µM

NS(=O)(=O)c1cccc(NC(=S)NC(=O)Nc2ccc(Cl)c(Cl)c2)c1
inactive: [1] 22.3 µM | [16] 17.1 µM | [2] 22.2 µM | [3] 16.1 µM | [4] 12.8 µM | [5] 12.7 µM | [17] 21.4 µM | [6] 11.5 µM | [7] 19.5 µM | [8] 24 µM | [10] 20.4 µM | [11] 17.3 µM | [12] 18.3 µM | [13] 25.9 µM | [14] 20 µM

O=C(C(Cl)=C(N1CCCCC1)N1CCCCC1)C(Cl)Cl
inactive: [16] > 100 µM | [18] > 100 µM | [2] > 100 µM | [3] > 100 µM | [4] > 100 µM | [5] > 100 µM | [17] > 100 µM | [6] > 100 µM | [7] > 100 µM | [8] > 100 µM | [9] 21.4 µM | [10] > 100 µM | [11] > 100 µM | [13] > 100 µM | [14] > 100 µM | [15] > 100 µM

CC(=O)Nc1ccc(C(O)/C(=N/N)c2nc3ccc(Cl)cc3nc2O)cc1 (stereo not drawn)
inactive: [1] > 100 µM | [16] > 100 µM | [18] > 100 µM | [2] > 100 µM | [3] > 100 µM | [4] > 100 µM | [5] > 100 µM | [6] > 100 µM | [7] > 100 µM | [8] > 100 µM | [9] > 100 µM | [10] > 100 µM | [11] > 100 µM | [12] > 100 µM | [13] > 100 µM | [14] > 100 µM | [15] > 100 µM

S=C(S)NCCN1CCNCC1
inactive: [1] > 100 µM | [16] 52.1 µM | [18] 22.4 µM | [2] > 100 µM | [3] 88.1 µM | [4] 14.7 µM | [5] > 100 µM | [17] > 100 µM | [6] 25.4 µM | [7] 36.7 µM | [8] 75.9 µM | [9] 39.5 µM | [10] > 100 µM | [11] 28.9 µM | [12] > 100 µM | [13] 59.7 µM | [15] > 100 µM

COc1cc(OC2OC(COC(=O)c3cc(O)c(O)c(O)c3)C(O)C(O)C2O)ccc1O (stereo not drawn)
inactive: [1] > 100 µM | [16] > 100 µM | [18] 84.1 µM | [2] 55.3 µM | [3] 47.3 µM | [4] 48 µM | [5] > 100 µM | [6] > 100 µM | [7] 55.1 µM | [8] 32.7 µM | [9] 69.2 µM | [10] > 100 µM | [11] 89.9 µM | [12] > 100 µM | [13] 70.5 µM | [14] > 100 µM | [15] > 100 µM

C[N+](C)(C)CC(=O)N/N=C(\Cc1nc2ccc([N+](=O)[O-])cc2nc1O)C(=O)Nc1nc2ccc([N+](=O)[O-])cc2s1
inactive: [1] 56.6 µM | [16] 37.3 µM | [18] 31.8 µM | [2] 30 µM | [3] 29.3 µM | [4] 13.3 µM | [5] 51.5 µM | [17] 34 µM | [7] 52.2 µM | [8] 29 µM | [9] 24.6 µM | [10] > 100 µM | [11] 74.3 µM | [12] 21.5 µM | [13] 45.6 µM | [14] 31.8 µM | [15] 25.4 µM

CC(C)NCC(O)c1ccc(O)c2ncccc12 (stereo not drawn)
inactive: [1] 31.5 µM | [16] 66.4 µM | [18] 16 µM | [2] 68.5 µM | [3] > 100 µM | [4] 47.2 µM | [5] > 100 µM | [17] 21.9 µM | [7] 42.3 µM | [8] > 100 µM | [9] 64.9 µM | [10] > 100 µM | [11] 33.3 µM | [12] > 100 µM | [13] 36.4 µM | [14] 43 µM | [15] > 100 µM

CC(C)(C)c1cc(C(C)(C)C)c(SS(=O)(=O)O)c(O)c1O
inactive: [1] 27.2 µM | [16] 34 µM | [18] 34.1 µM | [2] 28.9 µM | [3] > 100 µM | [5] 54.7 µM | [17] > 100 µM | [6] 97.5 µM | [7] 31.6 µM | [8] 84.1 µM | [9] 52.2 µM | [10] 81.8 µM | [11] 44.9 µM | [12] 34.5 µM | [13] 41.1 µM | [14] 15.1 µM | [15] 40 µM

O=S(=O)(c1ccccc1)N1CN2CN(C1)CN(S(=O)(=O)c1ccccc1)C2
inactive: [1] 97.3 µM | [16] > 100 µM | [18] > 100 µM | [2] > 100 µM | [3] > 100 µM | [5] > 100 µM | [17] > 100 µM | [7] 79.8 µM | [8] > 100 µM | [9] > 100 µM | [10] > 100 µM | [11] > 100 µM | [12] 22.7 µM | [13] > 100 µM | [14] > 100 µM | [15] > 100 µM

OC1CCN2Cc3ccccc3N=C12 (stereo not drawn)
inactive: [1] > 100 µM | [16] > 100 µM | [18] > 100 µM | [2] > 100 µM | [3] > 100 µM | [5] > 100 µM | [17] > 100 µM | [6] > 100 µM | [7] > 100 µM | [8] > 100 µM | [9] > 100 µM | [10] > 100 µM | [11] > 100 µM | [12] > 100 µM | [13] > 100 µM | [14] > 100 µM | [15] > 100 µM

N#Cc1ccnc(C(=O)N2CCCC2C(=O)O)c1 (stereo not drawn)
inactive: [1] > 100 µM | [16] > 100 µM | [18] > 100 µM | [2] > 100 µM | [3] > 100 µM | [4] > 100 µM | [5] > 100 µM | [6] > 100 µM | [7] > 100 µM | [8] > 100 µM | [9] > 100 µM | [10] > 100 µM | [11] > 100 µM | [12] > 100 µM | [13] > 100 µM | [14] > 100 µM | [15] > 100 µM
